The values below come from publication PMC12876990, “Targeting secreted PLA2 interactions with EGFR and vimentin to arrest prostate tumour growth” (Cell Death & Disease, 2025).

Data set [1] addresses T1, hGIIA/vimentin interaction (Homo sapiens, UniProt P08670).
T1 construct: Purified vimentin fragments (full length or coil 2) were seeded to a 96-well microplate at 15 μg/mL; hGIIA purified in house from conditioned medium of CHO cell line 2B1
Briefly: Enzyme immunoassay of hGIIA binding to vimentin coil 2. Particulars: 0.1-100 µM. The protocol: Prior to assay, hGIIA antibody 4A1 was conjugated to alkaline phosphatase (4A1-AP), produced using the lightning-link conjugation kit (ab102850, Abcam) as per the manufacturer’s instructions.
Purified vimentin fragments (full length or coil 2) were seeded to a 96-well microplate at 15 μg/mL with a 100 μL/well volume. After an overnight incubation at 4 °C, the plate was emptied. Each well was then blocked overnight at 4 °C with 200 μL of 1% BSA in PBS. The plate was emptied and washed with PBST (PBS + 0.05% Tween20). hGIIA solution of 100 ng/mL in PBS with 0.1% BSA was prepared with and without inhibitors c2, Withaferin A and LY311727 in DMSO with concentrations 0.1-100 µM. hGIIA working solution with 0.4% DMSO served as a positive control and PBS with 0.1% BSA served as a negative control. A 100 μL volume of each prepared hGIIA-inhibitor mixture was added to wells in triplicate and incubated at 37 °C for two hours. The plate was washed twice with PBST, then incubated with the 4A1-AP conjugate at 1 μg/mL 0.1% BSA in PBS and incubated for one hour at 37 °C. Plates were then emptied and washed three times with PBST, followed by washing twice with carbonate buffer (8 mM Na2CO3, 36 mM NaHCO3, 2 mM MgCl2, pH 9.8), before incubation with AP substrate p-nitro-phenyl phosphate (PNPP) powder at 1 mg/mL concentration in carbonate buffer. The plate was incubated at 37 °C for 60 mins then absorbance was read at 405 nm by a Spectramax M2 plate reader. All washes were a 200 µL/well volume.

The subject of data set [2] is fibroblast-like synoviocytes derived from patients with rheumatoid arthritis. The following applies: cited from earlier work.
Data set [3] is described as follows: Toxicity and serum enzyme levels in PCa xenograft model mice. It counts as in vivo. The protocol: Fig. 1 Derived from the structure of hGIIA, cF and c2 are orally absorbed, cell permeable and non-toxic. a Structure of hGIIA showing disulphide bonds (yellow) and the location of the peptide sequence ^70FLSYK^74 (cyan), which was cyclised to produce pentapeptide cF, then modified to produce c2. b Plasma concentrations of tritiated cF (red) and c2 (blue) following subcutaneous (sc) administration (circles) or oral (po) administration (squares) at 5 mg/kg to BALB/c mice (mean ± SE, n = 4 per time point). Tissue concentrations of c cF and d c2 following sc administration determined in the liver (blue) and kidney (brown) (mean ± SE). Dashed lines indicate estimated background levels of tritium in tissues due to tissue blood content (10% of peak plasma concentration). e–i Following po administration of c2 at 100 mg/kg to male rats (n = 5 per group), levels of c2 were measured in e plasma, f kidney, g faeces, h urine and i liver at timepoints indicated via LCMS/MS (mean ± SE). j Serum enzyme levels of markers of kidney function (creatinine), liver damage (AST and ALT) and heart damage (CK) in PCa xenograft model mice in response to treatment with vehicle (po, 3 x weekly for 6.1 ± 1.6 weeks), cF (10 mg/kg, po, 3 x weekly for 5.4 ± 0.9 weeks) or c2 (10 mg/kg, po, 3 x weekly for 4.8 ± 0.8 weeks) (n = 4, mean ± SE). Data were obtained by the South Eastern Area Laboratory Services Pathology Laboratory at Prince of Wales Hospital, Randwick, Australia. k PCa cell lines LNCaP, PC-3, and DU145 cells incubated with 100 µM c2 (green) for 24 hours with DAPI (blue), scale bar 10 µm (representative cells of n = 3 biological replicates, 5 cells per replicate).
A key failing of previous enzymatic inhibitors of hGIIA was toxicity, resulting in increased incidence of myocardial infarction in a phase III clinical trial. Thus, the toxicity profile of novel hGIIA inhibitors is critically important in evaluating new inhibitors. […] Extensive histopathology was performed on all animals in the control and high dose groups sacrificed on day 29, with no difference observed between the treated groups and the vehicle control group by any measure. […] In light of the toxicity associated with the myocardial infarction study, data from this c2 toxicity study relevant to heart toxicity are shown in Table 1. Heart wet weight was not affected by either low or high dose relative to vehicle, indicating the compound has no significant pro-hypertrophy effect at these doses. The lack of effect of c2 on gross necropsy or histopathology scores also supports the preclinical safety of the compound in the heart. Importantly, c2 has no effect on serum potassium levels or the Na/K ratio, since hypokalemia (low potassium) is highly arrythmogenic. […] It is of interest also that serum alanine transaminase is unaffected by c2 at the doses tested, since this marker was raised three-fold over the normal range in 6.3-fold more patients on varespladib than placebo in the VISTA acute coronary syndrome trial of this sPLA2 inhibitor [13].

Data set [4] in a line: Pharmacokinetics of tritiated cF and c2 in BALB/c mice. Type of data set: in vivo. The protocol:
All animal studies were performed according to the guidelines for the ethical use of animals published by the National Health and Medical Research Council of Australia. Mouse pharmacokinetic studies were conducted with approval from the Garvan Institute Animal Ethics Committee (approval #02/21). cF and c2 were radioactively labelled with tritium by catalytic saturation of peptide analogues containing dehydroleucine (Sibtech Inc.), yielding high specific activity (50–60 Ci/mmol) peptides. Their identity was confirmed by three separate analytical methods prior to delivery. Mice (BALB/c, n = 4 per timepoint) were administered a single dose of peptide by the routes and times indicated. Animals were then exsanguinated by cardiac puncture under halothane anaesthesia followed by cervical dislocation. Tissues and plasma were stored at −80 °C prior to analysis. For plasma, a known volume of plasma was added to liquid scintillant (Ultima Gold, Perkin Elmer). For tissues, a known amount of tissue (50–100 mg) was incubated in NaOH (1 mL, 1 M) overnight at room temperature. The solutions were then bleached with disodium EDTA (100 µl, 0.1%) and hydrogen peroxide (300 µl, 30%) and incubated at 50 °C for one hour. The peptide content of plasma and tissues was determined by liquid scintillation counting. The stability of the peptides following administration to animals was evaluated by thin-layer chromatography of tissue-extracted peptide relative to peptide prior to injection (Fig. S2c).

In data set [5] the test system is LNCaP-luc xenograft tumours in castrated mice. The experiment in a line: Castrate-resistant model of PCa. Type of data set: in vivo, BALB/c nu/nu mice. The following applies: cF 2 mg/kg po daily; p = 0.0419. The text has this:
Mice (BALB/c nu/nu) carrying LNCaP-luc xenograft tumours ( > 65.5 mm^3) were surgically castrated 2.0 - 6.6 weeks post-tumour establishment. Treatment was commenced five weeks post-castration and the study terminated 10 weeks post-treatment commencement.

The subject of data set [6] is PC-3M-luc xenograft tumours. Briefly: Androgen-receptor independent xenograft model. It counts as in vivo, BALB/c nu/nu mice. The protocol:
Mice (BALB/c nu/nu) carrying luciferase-tagged PC-3M cells (PC-3M-luc) were each injected sc with 1 × 10^6 cells suspended in RPMI culture medium. […] Tumour volume and animal weights were measured twice weekly.
(§1) Tumours were fixed with 10% neutral buffered formalin and stored in 70% ethanol, then paraffin-embedded and cut into 5 µm consecutive sections. Samples were deparaffinised with xylene and […] with ethanol using standard protocols, with antigens retrieved by incubating samples in citrate buffer (pH 6) at 95 °C for 20 min. Samples were then incubated with 3% H2O2 in methanol for 30 min to remove endogenous peroxidases, then blocked with 10% goat serum in PBS for 30 min. Samples were then incubated overnight at 4 °C with a range of antibodies: Ki67 (Abcam, ab15580, 1:100), vimentin (1:333), CD31 (Abcam, ab28364, 1:50) and hGIIA (1:100) (Cayman Chemical, Ann Arbour, MI). TUNEL assay (Abcam) was also used to identify apoptosis. Samples were then washed, stained with Rabbit IHC secondary antibody (1:100) (Dako, Glostrup, Denmark) and counterstained with Gill's haematoxylin (1:5) (Dako). Samples were imaged using an M8 digital microscope (PreciPoint GmbH, Freising, Germany) and DAB staining was scored in a blind manner using ImageJ as described previously.

Data set [7] relates to LNCaP-luc xenograft tumours. The experiment in a line: Androgen-sensitive xenograft model. Type of data set: in vivo, BALB/c nu/nu mice. The following applies: cF 2 mg/kg po daily. The protocol: BALB/c nu/nu mice (which express murine hGIIA) (n = 13 per group) were injected subcutaneously with 1 × 10^6 luciferase-tagged LNCaP cells (LNCaP-luc) in RPMI 5% FBS/Matrigel (1:1). Subcutaneous tumours (> 65.5 mm^3), in mice randomised to […], were treated by gavage with either vehicle (saline, 1% dimethylformamide (DMF), po, daily) cF (2 mg/kg po, daily) or c2 (0.1 mg/kg, thrice weekly). Mouse weight and tumour diameter, ((d1) and at 90 degrees to d1 (d2) measured with calipers) were recorded twice weekly. Diameter measurements were used to calculate tumour volume; Vol. = π/6 (d1.d2)^3/2, with treatments blinded to experimentalists. Animals were treated for 8-10 weeks unless culled due to tumour volume reaching 15 x 15 mm (1768 mm^3). End of study plasma PSA levels were measured by ELISA. Bioluminescence images were obtained weekly using the IVIS® Lumina (Perkin-Elmer). D-Luciferin, Firefly, potassium salt (150 mg/kg), (Gold Biotechnology Inc.) substrate was administered intraperitoneally prior to imaging. Images were acquired after 10 min with an image time of 60 s, medium binning, F/Stop=1. Images were quantified using the Living Image software (Perkin-Elmer).
as §1

Data set [8] relates to hGIIA. The following applies: cited from earlier work.
Data set [9] relates to castrate-resistant PCa. More on the design: method as in PMID 15470213. Particulars: cited from earlier work.
The conditions of data set [10]: cited from earlier work.

Peptide text beside a SMILES is read from it.

T1 sequence (P08670 269-407 limits assumed): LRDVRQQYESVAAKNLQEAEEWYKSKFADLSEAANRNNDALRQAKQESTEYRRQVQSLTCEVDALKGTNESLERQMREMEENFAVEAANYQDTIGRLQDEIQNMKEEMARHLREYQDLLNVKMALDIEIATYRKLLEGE

As for `CCc1c(CC(N)=O)c2cc(OCCCP(=O)(O)O)ccc2n1Cc1ccccc1` [LY311727], in data set [1], the “inhibition of the hGIIA/vimentin interaction” value was “did not inhibit”.
Take `CC(C)C[C@@H]1NC(=O)[C@H](Cc2ccccc2)NC(=O)[C@H](CCCNC(=N)N)NC(=O)[C@H](Cc2ccc(O)cc2)NC(=O)[C@H](CO)NC1=O` [cF, cyclo-(Phe-Leu Ser-Tyr-Arg)] (cyclo(FLSYR)): the “synthesis of exogenous hGIIA-mediated prostaglandin (PG)” value in data set [2] is given as “suppress”. Also, the “serum creatinine, aspartate aminotransferase, alanine aminotransferase, creatine kinase levels” value in data set [3] (10 mg/kg po thrice weekly) is reported as “no significant changes”. Also, the damage to organs result in data set [3] (10 mg/kg thrice weekly for 10 weeks) is “no observable damage to organs”. In addition, the gross toxicity entry in data set [3] (max dosages of 10 mg/kg thrice weekly for 10 weeks) was “No gross toxicity”. The “liver and kidney concentrations relative to c2” value in data set [4] (5 mg/kg) was ~ 10 fold. The “plasma concentration relative to c2” value in data set [4] (5 mg/kg, sc or po) is given as ~ 10 fold. Also, in [4] (sc and po administration), the “oral bioavailability (in words)” value was “orally bioavailable”. Besides, in data set [4] (tritiated peptide 5 mg/kg, po vs sc, at 16 hours), the “oral bioavailability relative to sc delivery (AUC analysis)” value was about 20%. The “relative tumour volume from time 0 at 10 weeks” value in [5] is listed as “significantly reduced”. Moreover, in [6] (cF), the “increase of TUNEL signal” value is “not seen” and the “proliferative marker Ki67 relative to control” value is recorded as “significant increase”. The “growth of tumours relative to vehicle controls” value in [6] (cF 5 mg/kg daily po, p < 0.05) is reported as “significantly slowed the growth of tumours”. Besides, the “animals surviving until study termination at 6 months” value in data set [6] (cF daily) is 13%. In addition, the tumour volume result in data set [7] (ten weeks, p = 0.0229) was “significant suppression”. Also, the PSA levels entry in [7] (p = 0.0158) is listed as “significantly reduced”. Moreover, the tumour weight entry in [7] (p = 0.0235) is “significant suppression”. Moreover, the luciferase signal entry in [7] (p = 0.0284) is given as “reduced”. In addition, in data set [8], the “potency in the inhibition of hGIIA catalytic activity, less than other hGIIA inhibitors” value was ~ 1000 fold.
As to `CC(=O)O[C@@]12CO[C@@H]1C[C@H](O)[C@@]1(C)C(=O)[C@H](O)C3=C(C)[C@@H](OC(=O)[C@H](O)[C@@H](NC(=O)OC(C)(C)C)c4ccccc4)C[C@@](O)([C@@H](OC(=O)c4ccccc4)[C@H]21)C3(C)C` [docetaxel], the tumour response in data set [9] is recorded as 12%.
On to `CCc1c(C(=O)C(N)=O)c2c(OCC(=O)O)cccc2n1Cc1ccccc1` [varespladib], for which the “patients with ALT raised three-fold over the normal range, varespladib vs placebo” value in data set [10] is on record as 6.3 fold.
With `CC1=C(CO)C(=O)O[C@@H]([C@@H](C)[C@H]2CC[C@H]3[C@@H]4C[C@H]5O[C@]56[C@@H](O)C=CC(=O)[C@]6(C)[C@H]4CC[C@]23C)C1` [withaferin A], the “inhibition of the hGIIA/vimentin interaction” value in data set [1] was “did not inhibit”.
